In brackets after ≈: the same amount, converted by molar mass.
System: S. aureus
Experiment: Minimum inhibitory concentrations (MICs) for S. aureus of exemplary compounds (Table 2)
Assay type: cell-based
Conditions: Staphylococcus aureus, minimum inhibitory concentrations for S. aureus; read-out: MICs
Procedure, shortened: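 Growth of S. aureus in media with or without compound, by broth microdilution in microtiter trays following NCCLS M7-A5 guidelines. Values are MICs in μg/mL.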

SMILES	MIC
CC(=O)NC[C@H]1CN(c2ccc(-c3ccc(CN(C)Cc4ccccn4)cc3)c(F)c2)C(=O)O1 [Compound 4045, N-(3-{2-Fluoro-4′-[(methyl-pyridin-2-ylmethyl-amino)-methyl]-biphenyl-4-yl}-2-oxo-oxazolidin-5-(S)-ylmethyl)-acetamide]	2 µg/mL (≈ 4.32 µM)
CC(=O)NC[C@H]1CN(c2ccc(-c3ccc(Cn4cnc5c(NCCF)ncnc54)cc3)c(F)c2)C(=O)O1 [Compound 1102, N-(3-{2-Fluoro-4′-[6-(2-fluoro-ethylamino)-purin-9-ylmethyl]-biphenyl-4-yl}-2-oxo-oxazolidin-5-(S)-ylmethyl)-acetamide]	1 µg/mL (≈ 1.92 µM)
CC(=O)NC[C@H]1CN(c2ccc(-c3ccc(CNCc4c[nH]c(-c5ccccc5)n4)cc3)c(F)c2)C(=O)O1 [Compound 4123, N-[3-(2-Fluoro-4′-{[(2-phenyl-1H-imidazol-4-ylmethyl)-amino]-methyl}-biphenyl-4-yl)-2-oxo-oxazolidin-5-(S)-ylmethyl]-acetamide]	16 µg/mL (≈ 31.2 µM)
CC(=O)NC[C@H]1CN(c2ccc(-c3ccc(CN(C)Cc4cnc5ccccc5c4)cc3)c(F)c2)C(=O)O1 [Compound 4215, N-(3-{2-Fluoro-4′-[(methyl-quinolin-3-ylmethyl-amino)-methyl]-biphenyl-4-yl}-2-oxo-oxazolidin-5-(S)-ylmethyl)-acetamide]	0.25 µg/mL (≈ 0.488 µM)
CC(=O)NC[C@H]1CN(c2ccc(-c3ccc(CSc4ncn[nH]4)cc3)c(F)c2)C(=O)O1 [Compound 2047, N-{3-[2-Fluoro-4′-(2H-[1,2,4]triazol-3-ylsulfanylmethyl)-biphenyl-4-yl]-2-oxo-oxazolidin-5-(S)-ylmethyl}-acetamide]	0.25 µg/mL (≈ 0.566 µM)
CC(=O)NC[C@H]1CN(c2ccc(-c3ccc(CNCc4cn(C)c5ccccc45)cc3)c(F)c2)C(=O)O1 [Compound 4218, N-[3-(2-Fluoro-4′-{[(1-methyl-1H-indol-3-ylmethyl)-amino]-methyl}-biphenyl-4-yl)-2-oxo-oxazolidin-5-(S)-ylmethyl]-acetamide]	2 µg/mL (≈ 4 µM)
CC(=O)NC[C@H]1CN(c2ccc(-c3ccc(Cn4cncn4)nc3)c(F)c2)C(=O)O1 [Compound 1072, N-{3-[3-Fluoro-4-(6-[1,2,4]triazol-1-ylmethyl-pyridin-3-yl)-phenyl]-2-oxo-oxazolidin-5-(S)-ylmethyl}-acetamide]	1 µg/mL (≈ 2.44 µM)
CC(=O)NC[C@H]1CN(c2ccc(-c3ccc(C(=O)NCc4ccco4)cc3)c(F)c2)C(=O)O1 [Compound 4111, 4′-[5-(S)-(Acetylamino-methyl)-2-oxo-oxazolidin-3-yl]-2′-fluoro-biphenyl-4-carboxylic acid (furan-2-ylmethyl)-amide]	2 µg/mL (≈ 4.43 µM)
CNCc1cn(Cc2ccc(-c3ccc(N4C[C@H](CNC(C)=O)OC4=O)cc3F)cc2)nn1 [Compound 1012, N-{3-[2-Fluoro-4′-(4-methylaminomethyl-[1,2,3]triazol-1-ylmethyl)-biphenyl-4-yl]-2-oxo-oxazolidin-5-(S)-ylmethyl}-acetamide]	2 µg/mL (≈ 4.42 µM)
CC(=O)NC[C@H]1CN(c2ccc(-c3ccc(CSc4cnn[nH]4)nc3)c(F)c2)C(=O)O1 [Compound 2040, N-(3-{3-Fluoro-4-[6-(3H-[1,2,3]triazol-4-ylsulfanylmethyl)-pyridin-3-yl]-phenyl}-2-oxo-oxazolidin-5-(S)-ylmethyl)-acetamide]	0.25 µg/mL (≈ 0.565 µM)

More lines, now with the values ahead:

MIC	SMILES
1 µg/mL (≈ 2.09 µM)	CC(=O)NC[C@H]1CN(c2ccc(-c3ccc(Cn4nnc5c(=O)[nH]cnc54)cc3)c(F)c2)C(=O)O1 [Compound 1027, N-{3-[2-Fluoro-4′-(7-oxo-6,7-dihydro-[1,2,3]triazolo[4,5-d]pyrimidin-3-ylmethyl)-biphenyl-4-yl]-2-oxo-oxazolidin-5-(S)-ylmethyl}-acetamide]
4 µg/mL (≈ 8.36 µM)	CC(=O)NC[C@H]1CN(c2ccc(-c3ccc([C@H](CO)NCc4ccncc4)cc3)c(F)c2)C(=O)O1 [Compound 4029, N-[3-(2-Fluoro-4′-{2-hydroxy-1-(R)-[(pyridin-4-ylmethyl)-amino]-ethyl}-biphenyl-4-yl)-2-oxo-oxazolidin-5-(S)-ylmethyl]-acetamide]
0.5 µg/mL (≈ 0.991 µM)	CC(=O)NC[C@H]1CN(c2ccc(-c3ccc(CNCc4nc5ccccc5s4)cc3)c(F)c2)C(=O)O1 [Compound 4121, N-[3-(4′-{[(Benzothiazol-2-ylmethyl)-amino]-methyl}-2-fluoro-biphenyl-4-yl)-2-oxo-oxazolidin-5-(S)-ylmethyl]-acetamide]
0.5 µg/mL (≈ 1 µM)	CC(=O)NC[C@H]1CN(c2ccc(-c3ccc(CNCc4c(C)nn(C)c4Cl)cc3)c(F)c2)C(=O)O1 [Compound 4126, N-[3-(4′-{[(5-Chloro-1,3-dimethyl-1H-pyrazol-4-ylmethyl)-amino]-methyl}-2-fluoro-biphenyl-4-yl)-2-oxo-oxazolidin-5-(S)-ylmethyl]-acetamide]
4 µg/mL (≈ 7.85 µM)	CC(=O)NC[C@H]1CN(c2ccc(-c3ccc(CN(C)Cc4c(C)nc(O)nc4O)cc3)c(F)c2)C(=O)O1 [Compound 4036, N-[3-(4′-{[(2,4-Dihydroxy-6-methyl-pyrimidin-5-ylmethyl)-methyl-amino]-methyl}-2-fluoro-biphenyl-4-yl)-2-oxo-oxazolidin-5-(S)-ylmethyl]-acetamide]
1 µg/mL (≈ 2.44 µM)	CC(=O)NC[C@H]1CN(c2ccc(-c3ccc(Cn4cccn4)nc3)c(F)c2)C(=O)O1 [Compound 1076, N-{3-[3-Fluoro-4-(6-pyrazol-1-ylmethyl-pyridin-3-yl)-phenyl]-2-oxo-oxazolidin-5-(S)-ylmethyl}-acetamide]
0.25 µg/mL (≈ 0.568 µM)	CC(=O)NC[C@H]1CN(c2ccc(-c3ccc(/C=N/N4CCOCC4)cc3)c(F)c2)C(=O)O1 [Compound 2056, N-{3-[2-Fluoro-4′-(morpholin-4-yliminomethyl)-biphenyl-4-yl]-2-oxo-oxazolidin-5-(S)-ylmethyl}-acetamide]
1 µg/mL (≈ 2.14 µM)	CC(=O)NC[C@H]1CN(c2ccc(-c3ccc([S+]([O-])Cc4ccncc4)cc3)c(F)c2)C(=O)O1 (stereo partly drawn) [Compound 3002, N-{3-[2-Fluoro-4′-(pyridin-4-ylmethanesulfinyl)-biphenyl-4-yl]-2-oxo-oxazolidin-5-(S)-ylmethyl}-acetamide]
2 µg/mL (≈ 3.87 µM)	COc1ccc2[nH]cc(CNCc3ccc(-c4ccc(N5C[C@H](CNC(C)=O)OC5=O)cc4F)cc3)c2c1 [Compound 4098, N-[3-(2-Fluoro-4′-{[(5-methoxy-1H-indol-3-ylmethyl)-amino]-methyl}-biphenyl-4-yl)-2-oxo-oxazolidin-5-(S)-ylmethyl]-acetamide]
1 µg/mL (≈ 1.88 µM)	CC(=O)NC[C@H]1CN(c2ccc(-c3ccc(CNCc4csc(-c5ccccc5)n4)cc3)c(F)c2)C(=O)O1 [Compound 4122, N-[3-(2-Fluoro-4′-{[(2-phenyl-thiazol-4-ylmethyl)-amino]-methyl}-biphenyl-4-yl)-2-oxo-oxazolidin-5-(S)-ylmethyl]-acetamide]
4 µg/mL (≈ 8.02 µM)	CC(=O)NC[C@H]1CN(c2ccc(-c3ccc(CNCC(F)(F)c4ccccn4)cc3)c(F)c2)C(=O)O1 [Compound 4177, N-(3-{4′-[(2,2-Difluoro-2-pyridin-2-yl-ethylamino)-methyl]-2-fluoro-biphenyl-4-yl}-2-oxo-oxazolidin-5-(S)-ylmethyl)-acetamide]
4 µg/mL (≈ 7.91 µM)	CC(=O)NC[C@H]1CN(c2ccc(-c3ccc(CNC(=O)c4ccc5c(c4)OCO5)cc3)c(F)c2)C(=O)O1 [Compound 4014, Benzo[1,3]dioxole-5-carboxylic acid {4′-[5-(S)-(acetylamino-methyl)-2-oxo-oxazolidin-3-yl]-2′-fluoro-biphenyl-4-ylmethyl}-amide]
4 µg/mL (≈ 9.77 µM)	CC(=O)NC[C@H]1CN(c2ccc(-c3ccc(Cn4ccnc4)nc3)c(F)c2)C(=O)O1 [Compound 1077, N-{3-[3-Fluoro-4-(6-imidazol-1-ylmethyl-pyridin-3-yl)-phenyl]-2-oxo-oxazolidin-5-(S)-ylmethyl}-acetamide]
2 µg/mL (≈ 4.55 µM)	CC(=O)NC[C@H]1CN(c2ccc(-c3ccc(CNCc4cocn4)nc3)c(F)c2)C(=O)O1 [Compound 4235, N-{3-[3-Fluoro-4-(6-{[(oxazol-4-ylmethyl)-amino]-methyl}-pyridin-3-yl)-phenyl]-2-oxo-oxazolidin-5-(S)-ylmethyl}-acetamide]
0.25 µg/mL (≈ 0.557 µM)	O=C1O[C@@H](Cn2ccnn2)CN1c1ccc(-c2ccc(CNCc3cnn[nH]3)cc2)c(F)c1 [Compound 4268, 3-(2-Fluoro-4′-{[(3H-[1,2,3]triazol-4-ylmethyl)-amino]-methyl}-biphenyl-4-yl)-5-(R)-[1,2,3]triazol-1-ylmethyl-oxazolidin-2-one]
1 µg/mL (≈ 2.12 µM)	CC(=O)NC[C@H]1CN(c2ccc(-c3ccc(CNCc4cccc(C#N)c4)cc3)c(F)c2)C(=O)O1 [Compound 4070, N-(3-{4′-[(3-Cyano-benzylamino)-methyl]-2-fluoro-biphenyl-4-yl}-2-oxo-oxazolidin-5-(S)-ylmethyl)-acetamide]
1 µg/mL (≈ 2.23 µM)	CC(=O)NC[C@H]1CN(c2ccc(-c3ccc(CNCc4ccncc4)cc3)c(F)c2)C(=O)O1 [Compound 4018, N-[3-(2-Fluoro-4′-{[(pyridin-4-ylmethyl)-amino]-methyl}-biphenyl-4-yl)-2-oxo-oxazolidin-5-(S)-ylmethyl]-acetamide]
8 µg/mL (≈ 16.7 µM)	CC(=O)NC[C@H]1CN(c2ccc(-c3ccc(CNCc4c(C)nn(C)c4C)cc3)c(F)c2)C(=O)O1 [Compound 4163, N-[3-(2-Fluoro-4′-{[(1,3,5-trimethyl-1H-pyrazol-4-ylmethyl)-amino]-methyl}-biphenyl-4-yl)-2-oxo-oxazolidin-5-(S)-ylmethyl]-acetamide]

Same assay, conditions: Staphylococcus aureus, read-out: MICs

SMILES	MIC
CC(=O)NC[C@H]1CN(c2ccc(-c3ccc(Cc4c[nH]cn4)cc3)c(F)c2)C(=O)O1 [Compound 1086, N-{3-[2-Fluoro-4′-(1H-imidazol-4-ylmethyl)-biphenyl-4-yl]-2-oxo-oxazolidin-5-(S)-ylmethyl}-acetamide]	0.5 µg/mL (≈ 1.22 µM)
COc1cccc(CNc2nc(Cc3ccc(-c4ccc(N5C[C@H](CNC(C)=O)OC5=O)cc4F)cc3)cs2)c1 [Compound 1021, N-(3-{2-Fluoro-4′-[2-(3-methoxy-benzylamino)-thiazol-4-ylmethyl]-biphenyl-4-yl}-2-oxo-oxazolidin-5-(S)-ylmethyl)-acetamide]	1 µg/mL (≈ 1.78 µM)
CC(=O)NC[C@H]1CN(c2ccc(-c3ccc(CN4CC(C#N)C4)cc3)c(F)c2)C(=O)O1 [Compound 1022, N-{3-[4′-(3-Cyano-azetidin-1-ylmethyl)-2-fluoro-biphenyl-4-yl]-2-oxo-oxazolidin-5-(S)-ylmethyl}-acetamide]	0.25 µg/mL (≈ 0.592 µM)

Reference: US10471046B2, “Method for treating, preventing, or reducing the risk of skin infection” (Melinta Subsidiary Corp., priority 2014, dated 2019)
